Assay: Pro-Fragrant Hydrolysis Test (hydrolysis half-life t-1/2 by UV/Vis)
Assay type: physicochemical
Settings: pH 0; 90/10 dioxane/water, 30° C.
Procedure: Hydrolysis half-life is the measurement used to determine the ease with which the pro-fragrance compound undergoes acid hydrolysis and thereby releases its fragrance component(s) upon exposure to acid conditions. […] Preferably, pro-fragrances of the invention have a half-life at pH 2 of less than 60 minutes. For granular detergents, the more reactive pro-fragrances, that is, those with half-life at pH 2 of less than one minute, are most suitable, although those having a half-life of less than 60 minutes at pH 0 are also useful. For liquid detergent applications, pro-fragrances having a half-life of less than 60 minutes at pH 0, and half-life greater than one minute at pH 2 should preferably be used.
Hydrolysis half-life is determined by UV/V is spectroscopy in a 90/10 dioxane/water system at 30° C. by following the appearance of the carbonyl absorbance. Because of the hydrophobicity of the pro-fragrance compounds of the invention, a high dioxane/water ratio is needed to ensure solubility of the pro-fragrance. The pH of the water used is achieved by using aqueous HCl. The concentration of the pro-fragrance in the dioxane/water system can be adjusted to achieve convenient, measurable absorbance changes.
All measurements are carried out using a Hewlett Packard 8452 A Diode Array Spectrophotometer using quartz 1 cm path length cuvette cells. […] The pH's are measured using an Orion 230 A standardized with pH 4 and pH 7 buffers. […]
Pro-fragrance is weighed out in a 10.00 ml volumetric flask using an analytical balance (Mettler AE 200) Precision is 1/10 mg. […] Hydrolysis time is measured, starting upon addition of the acid. […] The absorbance of the pro-fragrance solution (At) is followed at a regular series of time intervals, and the cuvette is kept in the water-bath at the above-indicated temperature between measurements. Initial absorbance (Ao) measurements are carried out using an equal concentration of pro-fragrance in a 90/10 v/v dioxane-deionized water solution, and final absorbance (Af) measurements are taken using the hydrolyzed pro-fragrance solution after the hydrolysis is complete. The wavelength at which the hydrolysis is followed is chosen at the wavelength of the absorbance maximum of the parent aldehyde or ketone.
Reaction half-lifes are determined using conventional procedures. The observed first-order rate constant (kobs) is determined by slope of the line provided by plotting the following finction vs time (min):
wherein said function is the natural log of the ratio between the absorbance difference at initial time (Ao) and final time (Af) over the absorbance difference at time t (At) and final time (Af). […]

| SMILES | t1/2 (hydrolysis half-life) |
| --- | --- |
| CCCCCCCCCC(OC/C=C(\C)CCC=C(C)C)OC/C=C(\C)CCC=C(C)C [Example 4, Digeranyl Decanal Acetal] | 44 min |
| CCCCCCCCCCOC(OCCCCCCCCCC)c1ccc(OC)cc1 [Example 1, Didecyl Anisaldehyde Acetal] | less than 1 minutes |
| CCCCCCCCCCOC(C)(CCc1ccccc1)OCCCCCCCCCC [Example 3, Didecyl Benzyl Acetone Ketal] | less than one |
| CC(C)=CCCC(C)=CC(OC/C=C(\C)CCC=C(C)C)OC/C=C(\C)CCC=C(C)C [Example 2, Digeranyl Citral Acetal] | less than one |

From patent US6239087A, “Detergent compositions containing fragrance precursors and the fragrance precursors themselves” (The Procter & Gamble Company, priority 1998, dated 2001)
